# Test results as given in PubChem BioAssay AID1845208 (Molecular Pharmacology Branch, DTP, NCI, 2023).
# Test system: NCI-H196 SCLC complex tumor spheroid viability
# Assay: Anticancer human tumor NCI-H196 cell line growth inhibition;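 further: spheroids exposed to compounds for 7 days before readout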;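 on viability, T/C: 100% = DMSO vehicle control wells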
# Settings: for IC50: curve of first compound; for viability, T/C: stronger effect = lower value
# Procedure, shortened: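 Complex spheroids of malignant cells with endothelial cells and mesenchymal stem cells; agents alone or combined, from near clinical Cmax (or 10 microM if unknown) down in half-log steps, 0.25% DMSO final.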
# [1] = second compound 0.003 µM, first compound 0.0316 µM
# [2] = second compound 0.003 µM, first compound 0.1 µM
# [3] = second compound 0.003 µM, first compound 0.316 µM
# [4] = second compound 0.003 µM, first compound 1 µM
# [5] = second compound 0.003 µM, first compound 3.16 µM
# [6] = second compound 0.003 µM, first compound 10 µM
# [7] = second compound 0.00949 µM, first compound 0.0316 µM
# [8] = second compound 0.00949 µM, first compound 0.1 µM
# [9] = second compound 0.00949 µM, first compound 0.316 µM
# [10] = second compound 0.00949 µM, first compound 1 µM
# [11] = second compound 0.00949 µM, first compound 3.16 µM
# [12] = second compound 0.00949 µM, first compound 10 µM
# [13] = second compound 0.03 µM, first compound 0.0316 µM
# [14] = second compound 0.03 µM, first compound 0.1 µM
# [15] = second compound 0.03 µM, first compound 0.316 µM
# [16] = second compound 0.03 µM, first compound 1 µM
# [17] = second compound 0.03 µM, first compound 3.16 µM
# [18] = second compound 0.03 µM, first compound 10 µM
# [19] = second compound 0.0949 µM, first compound 0.0316 µM
# [20] = second compound 0.0949 µM, first compound 0.1 µM
# [21] = second compound 0.0949 µM, first compound 0.316 µM
# [22] = second compound 0.0949 µM, first compound 1 µM
# [23] = second compound 0.0949 µM, first compound 3.16 µM
# [24] = second compound 0.0949 µM, first compound 10 µM
# [25] = second compound 0.3 µM, first compound 0.0316 µM
# [26] = second compound 0.3 µM, first compound 0.1 µM
# [27] = second compound 0.3 µM, first compound 0.316 µM
# [28] = second compound 0.3 µM, first compound 1 µM
# [29] = second compound 0.3 µM, first compound 3.16 µM
# [30] = second compound 0.3 µM, first compound 10 µM
smiles,measurement,setting,value
CC(C)n1c(=O)n(C)c2cnc3cc(F)c(-c4ccc(OCCCN5CCCCC5)nc4)cc3c21 + CC[C@@]1(O)C(=O)OCc2c1cc1n(c2=O)Cc2cc3c(CN(C)C)c(O)ccc3nc2-1,IC50,second compound 0.003 µM,> 10 µM
same,IC50,second compound 0.00949 µM,> 10 µM
same,IC50,second compound 0.03 µM,> 10 µM
same,IC50,second compound 0.0949 µM,> 10 µM
same,IC50,second compound 0.3 µM,> 10 µM
same,"viability, T/C",[1],102%
same,"viability, T/C",[2],106%
same,"viability, T/C",[3],105%
same,"viability, T/C",[4],107%
same,"viability, T/C",[5],110%
same,"viability, T/C",[6],113%
same,"viability, T/C",[7],105%
same,"viability, T/C",[8],107%
same,"viability, T/C",[9],109%
same,"viability, T/C",[10],112%
same,"viability, T/C",[11],110%
same,"viability, T/C",[12],103%
same,"viability, T/C",[13],102%
same,"viability, T/C",[14],102%
same,"viability, T/C",[15],104%
same,"viability, T/C",[16],101%
same,"viability, T/C",[17],95.9%
same,"viability, T/C",[18],87.9%
same,"viability, T/C",[19],116%
same,"viability, T/C",[20],113%
same,"viability, T/C",[21],104%
same,"viability, T/C",[22],86.5%
same,"viability, T/C",[23],74.9%
same,"viability, T/C",[24],71.9%
same,"viability, T/C",[25],110%
same,"viability, T/C",[26],107%
same,"viability, T/C",[27],108%
same,"viability, T/C",[28],88.1%
same,"viability, T/C",[29],78.5%
same,"viability, T/C",[30],71.4%
COc1ccc([C@@H](O)c2cc(-c3ncnc4cc(N5CCOCC5)ccc34)c(F)cc2Cl)nn1 + CC[C@@]1(O)C(=O)OCc2c1cc1n(c2=O)Cc2cc3c(CN(C)C)c(O)ccc3nc2-1,IC50,second compound 0.003 µM,> 10 µM
same,IC50,second compound 0.00949 µM,> 10 µM
same,IC50,second compound 0.03 µM,5.95 µM
same,IC50,second compound 0.0949 µM,2.63 µM
same,IC50,second compound 0.3 µM,2.61 µM
same,"viability, T/C",[1],100%
same,"viability, T/C",[2],99.6%
same,"viability, T/C",[3],90.8%
same,"viability, T/C",[4],82.3%
same,"viability, T/C",[5],69.2%
same,"viability, T/C",[6],55.2%
same,"viability, T/C",[7],98%
same,"viability, T/C",[8],97.1%
same,"viability, T/C",[9],95.5%
same,"viability, T/C",[10],88.9%
same,"viability, T/C",[11],65.7%
same,"viability, T/C",[12],52.8%
same,"viability, T/C",[13],93.5%
same,"viability, T/C",[14],92.3%
same,"viability, T/C",[15],88.1%
same,"viability, T/C",[16],72.5%
same,"viability, T/C",[17],58.6%
same,"viability, T/C",[18],43.5%
same,"viability, T/C",[19],99.8%
same,"viability, T/C",[20],102%
same,"viability, T/C",[21],93.5%
same,"viability, T/C",[22],70.2%
same,"viability, T/C",[23],46.2%
same,"viability, T/C",[24],39.5%
same,"viability, T/C",[25],107%
same,"viability, T/C",[26],104%
same,"viability, T/C",[27],88.8%
same,"viability, T/C",[28],71.9%
same,"viability, T/C",[29],43.1%
same,"viability, T/C",[30],37.1%
O=C(c1cc(Cc2n[nH]c(=O)c3ccccc23)ccc1F)N1CCN(C(=O)C2CC2)CC1 + COc1cc2c(cc1O)CCNC21CSC2c3c(OC(C)=O)c(C)c4c(c3C(COC1=O)N1C(O)C3Cc5cc(C)c(OC)c(O)c5C(C21)N3C)OCO4,IC50,second compound 30 pM,> 30 µM
same,IC50,second compound 94.9 pM,> 30 µM
same,IC50,second compound 0.0003 µM,> 30 µM
same,IC50,second compound 0.000949 µM,> 30 µM
same,IC50,second compound 0.003 µM,< 0.0949 µM
same,"viability, T/C","second compound 30 pM, first compound 0.0949 µM",107%
same,"viability, T/C","second compound 30 pM, first compound 0.3 µM",105%
same,"viability, T/C","second compound 30 pM, first compound 0.949 µM",101%
same,"viability, T/C","second compound 30 pM, first compound 3 µM",98.9%
same,"viability, T/C","second compound 30 pM, first compound 9.49 µM",85.5%
same,"viability, T/C","second compound 30 pM, first compound 30 µM",67.2%
same,"viability, T/C","second compound 94.9 pM, first compound 0.0949 µM",104%
same,"viability, T/C","second compound 94.9 pM, first compound 0.3 µM",102%
same,"viability, T/C","second compound 94.9 pM, first compound 0.949 µM",102%
same,"viability, T/C","second compound 94.9 pM, first compound 3 µM",93.7%
same,"viability, T/C","second compound 94.9 pM, first compound 9.49 µM",91.5%
same,"viability, T/C","second compound 94.9 pM, first compound 30 µM",62.7%
same,"viability, T/C","second compound 0.0003 µM, first compound 0.0949 µM",99.6%
same,"viability, T/C","second compound 0.0003 µM, first compound 0.3 µM",105%
same,"viability, T/C","second compound 0.0003 µM, first compound 0.949 µM",99.5%
same,"viability, T/C","second compound 0.0003 µM, first compound 3 µM",92%
same,"viability, T/C","second compound 0.0003 µM, first compound 9.49 µM",84.3%
same,"viability, T/C","second compound 0.0003 µM, first compound 30 µM",66%
same,"viability, T/C","second compound 0.000949 µM, first compound 0.0949 µM",86.4%
same,"viability, T/C","second compound 0.000949 µM, first compound 0.3 µM",86.9%
same,"viability, T/C","second compound 0.000949 µM, first compound 0.949 µM",80.7%
same,"viability, T/C","second compound 0.000949 µM, first compound 3 µM",78.5%
same,"viability, T/C","second compound 0.000949 µM, first compound 9.49 µM",68.9%
same,"viability, T/C","second compound 0.000949 µM, first compound 30 µM",54.4%
same,"viability, T/C","second compound 0.003 µM, first compound 0.0949 µM",3.15%
same,"viability, T/C","second compound 0.003 µM, first compound 0.3 µM",6.44%
same,"viability, T/C","second compound 0.003 µM, first compound 0.949 µM",3.39%
same,"viability, T/C","second compound 0.003 µM, first compound 3 µM",1.87%
same,"viability, T/C","second compound 0.003 µM, first compound 9.49 µM",0.89%
same,"viability, T/C","second compound 0.003 µM, first compound 30 µM",1.4%
